{"source": "patent US8603996B2", "about": "“Modular aptamer-regulated ribozymes” (California Institute of Technology, priority 2006, dated 2013)", "origin": "cited, not measured here", "tested_on": "theophylline aptamer"}
{"smiles": "O=c1[nH]c(=O)c2[nH]cnc2[nH]1", "note": "[xanthine]", "values": [{"measurement": "binding affinity lower than theophylline", "value": 27, "unit": "fold"}]}
